Experiments:
[1] = tested on: Hedgehog pathway; assay: Inhibition of the Hedgehog pathway in cell culture: C3H10T1/2 osteoblast differentiation, alkaline phosphatase assay; assay type: cell-based, Mouse; settings: approximate EC50 for inhibition, C3H10T1/2 cells, sonic Hedgehog 250 ng/ml, alkaline phosphatase activity normalized to total protein
From the text: Hedgehog pathway specific cancer cell killing effects may be ascertained using the following assay. C3H10T1/2 cells differentiate into osteoblasts when contacted with the sonic hedgehog peptide (Shh-N). Upon differentiation; these osteoblasts produce high levels of alkaline phosphatase (AP) which can be measured in an enzymatic assay (Nakamura et al., 1997 BBRC 237: 465). Compounds that block the differentiation of C3H10T1/2 into osteoblasts (a Shh dependent event) can therefore be identified by a reduction in AP production (van der Horst et al., 2003 Bone 33: 899). The assay details are described below. The results approximate (EC50 for inhibition) of the differentiation assay is shown below in Table 1.
Mouse embryonic mesoderm fibroblasts C3H10T1/2 cells (obtained from ATCC) were cultured in Basal MEM Media (Gibco/Invitrogen) supplemented with 10% heat inactivated FBS (Hyclone), 50 units/ml penicillin and 50 ug/ml streptomycin (Gibco/Invitrogen) at 37 C with 5% CO2 in air atmosphere.
C3H10T1/2 cells were plated in 96 wells with a density of 8×10^3 cells/well. Cells were grown to confluence (72 hrs). After sonic Hedgehog (250 ng/ml), and/or compound treatment, the cells were lysed in 110 μL, of lysis buffer (50 mM Tris pH 7.4, 0.1% TritonX100), plates were sonicated and lysates spun through 0.2 μm PVDF plates (Corning). 40 μL, of lysates was assayed for AP activity in alkaline buffer solution (Sigma) containing 1 mg/ml p-Nitrophenyl Phosphate. After incubating for 30 min at 37° C., the plates were read on an Envision plate reader at 405 nm. Total protein was quantified with a BCA protein assay kit from Pierce according to manufacturer's instructions. AP activity was normalized against total protein.

[2] = tested on: BXPC-3 cells; assay: Pancreatic cancer model: BXPC-3 subcutaneous tumors in mice, tumor volume; assay type: in vivo, human; settings: 40 mg/kg/day, 25 daily doses, p=0.0309
Procedure: (§1) The activity of Compound 42 was tested in a human pancreatic model: BXPC-3 cells were implanted subcutaneously into the flanks of the right legs of mice. On day 42 post-tumor implant, the mice were randomized into two groups to receive either Vehicle (30% HPBCD) or Compound 42. Compound 42 was dosed at 40 mg/kg/day. […] At the end of the study, the tumors were harvested 4 hours post the last dose to evaluate an on target response by q-RT-PCR analysis of the HH pathway genes.

[3] = tested on: human Gli-1; assay: Pancreatic cancer model: q-RT-PCR of HH pathway genes in harvested tumors, human Gli-1; assay type: in vivo; settings: BXPC-3 tumors harvested 4 hours post last dose, 40 mg/kg/day
Procedure: as §1

[4] = tested on: murine Gli-1 mRNA; assay: Pancreatic cancer model: q-RT-PCR of HH pathway genes in harvested tumors, murine Gli-1; assay type: in vivo; settings: BXPC-3 tumors harvested 4 hours post last dose, 40 mg/kg/day, vs Vehicle group
Procedure: as §1

[5] = tested on: Gli-1 mRNA; assay: Medulloblastoma model: Ptch1/Hic1 subcutaneous allografts, Gli-1 mRNA expression; assay type: in vivo, mouse; settings: single oral dose, subcutaneously implanted medulloblastoma tumors, 8 hours post dose
Procedure: (§2) The activity of Compound 42 was also evaluated in a transgenic mouse model of medulloblastoma. Mice that are heterozygous for loss of function mutations in the tumor suppressors Patched1 (Ptch1) and Hypermethylated in Cancer (Hic1) develop spontaneous medulloblastoma. […] When passaged as subcutaneous allografts, these tumors grow aggressively and are Hedgehog pathway-dependent. This model was employed to evaluate the efficacy of orally administered Compound, and to correlate activity with drug exposure in plasma and tumors.

[6] = tested on: medulloblastoma; assay: Medulloblastoma model: Ptch1/Hic1 subcutaneous allografts, tumor growth and survival; assay type: in vivo, mouse; settings: daily (QD) PO administration
Procedure: as §2
The approximate effective daily oral dose for 50% inhibition of tumor growth (ED50) is 4 mg/kg.

[7] = tested on: LX22 cells; assay: Lung cancer model: LX22 primary SCLC xenograft in mice; assay type: in vivo, human
From the text: To test the activity of Compound 42 in a human SCLC tumor model, LX22 cells were implanted subcutaneously into the flank of the right leg. LX22 is primary xenograft model of SCLC derived from chemo-naive patients, which has been maintained by mouse to mouse passaging. This tumor responds to etoposide/carboplatin chemotherapy in way that closely resembles a clinical setting. LX22 regresses during chemotherapy treatment, goes through a period of remission, and then begins to recur. In the LX22 model, Compound single agent activity and its ability to modulate the chemoresistant recurrence was tested. On day 32 post tumor implant, mice were randomized into three dosing groups to receive Vehicle (30% HBPCD), Compound, or the chemotherapy combination of etoposide and carboplatin (E/P). […] Etoposide was administered i.v at 12 mg/kg on days 34, 35, 36, and 48, while Carboplatin was administered i.v. at 60 mg/kg on days 34, 41, and 48, post tumor implant. On day 50, the E/P treated mice were further randomized to receive either Vehicle (30% HPBCD) or Compound follow up treatment.

[8] = Oral multi-dose MTD; assay type: in vivo, mice

Compound: CC1=C2C[C@H]3[C@@H](CC=C4C[C@@H](O)CC[C@@]43C)[C@@H]2CC[C@@]2(C1)O[C@@H]1C[C@H](C)CN[C@H]1[C@H]2C [Compound 8]
- EC50 [1]: > 0.1 µM

Compound: CC1=C2C[C@H]3[C@@H](CC[C@@H]4CC(=O)CC[C@@]43C)[C@@H]2CC[C@@]2(C1)O[C@@H]1C[C@H](C)CN(C(C)C)[C@H]1[C@H]2C [Compound 10]
- EC50 [1]: > 0.1 µM

Compound: CC1=C2C[C@H]3[C@@H](CC[C@@H]4C[C@@H](OC(=O)CN)CC[C@@]43C)[C@@H]2CC[C@@]2(C1)O[C@@H]1C[C@H](C)CN[C@H]1[C@H]2C [Compound 40]
- EC50 ([1]; Mus musculus, C3H 10T1/2): < 0.02 µM

Compound: CC1=C2C[C@H]3[C@@H](CC[C@@H]4C[C@H](NS(C)(=O)=O)CC[C@@]43C)[C@@H]2CC[C@@]2(C1)O[C@@H]1C[C@H](C)CN[C@H]1[C@H]2C [Compound 42]
- reduction of tumor volume growth compared to vehicle control [2]: 40%
- human Gli-1 modulation (q-RT-PCR) [3]: no modulation
- murine Gli-1 mRNA levels (q-RT-PCR) [4]: robust down-regulation
- HH pathway modulation measured by Gli-1 mRNA expression [5]: dose-dependent down-regulation of the HH pathway
- tumor growth [6]: dose dependent inhibition of tumor growth, with frank tumor regression seen at higher doses
- single agent activity, treated vs vehicle groups ([7]; 40 mg/kg/day, 16 consecutive doses): no measurable difference between the treated and vehicle groups
- tumor recurrence after etoposide/carboplatin (E/P) chemotherapy ([7]; follow up treatment from day 50, 40 mg/kg/day oral, 35 consecutive doses, vs vehicle, p=0.0101): substantial delay in tumor recurrence
- oral multi-dose MTD [8]: 40 mg/kg/day

— patent publication US11007181B2, “Cyclopamine analogs” (Infinity Pharmaceuticals, Inc., priority 2006, dated 2021)
